Source: patent US20170368052A1, “CRYSTAL FORMS OF APOMORPHINE AND USES THEREOF” (NeuroDerm, Ltd., priority 2014, published 2017)
Entries after “also recorded” stand apart in the source; their conditions may differ. Counter-ions that a name gives are not always drawn.

Tests used:
[1] = Stability of the reaction mixture at reflux in IPA with/without ascorbic acid-6-palmitate (HPLC); assay type: physicochemical
Experimental: In this case, the base was added under reflux and the procedure compared with and without ascorbic acid-6-palmitate as an antioxidant (Table 7).

[2] = Stability of the reaction mixture at 40-45° C. (HPLC profile); assay type: physicochemical; settings: 40° C.
Experimental: The effect of adding ascorbic acid-6-palmitate on stability of the reaction mixture and the isolated solid was determined in a larger scale reaction (A0513-68). On a 10 g scale, ascorbic acid-6-palmitate (0.01 wt) was added to a flask with the apomorphine hydrochloride salt and IPA (10 vol). 3-amino-1-propanol (2.5 ml, 1.1 eq, 0.25 vol) was added at 40-45° C., and a slurry was present throughout. The slurry was stirred at 40-45° C. for 2 h; at this point 10% of the reaction mixture was removed for an extended stability study at 40-45° C. The remainder of the reaction was cooled and aged over 16 h to 18-23° C. The solid was filtered and washed with IPA (2×3 vol) and resulted a white solid (liquor was pale yellow). The solid was dried under a flow of nitrogen for 30 min. The yield was 7.03 g (79.8%, corrected for 18.3% w/w IPA, approximately 1 eq), 100% area by HPLC (Note: 10% of the reaction mixture was removed for the stability study, therefore this yield is at the expected approximately 90% level, and the combined mother liquor and washes contained 7.6% of theoretical yield by assay). In this material the ascorbic acid-6-palmitate and 3-amino-1-propanol in the product were below detectable levels by ^1H NMR analysis.
Stability of the reaction mixture was compared with and without ascorbic acid-6-palmitate. Each reaction was held at 40-45° C. and both the color and the HPLC profile monitored. HPLC purity profiles are shown on Table 6.

[3] = cited from earlier work; for Literature pKa: bases of the base screen in n-BuOH; for pKa: amine bases used for salt release in IPA
[4] = Vacuum oven drying, retained solvent content; assay type: physicochemical; settings: for Solvent content post-drying: vacuum oven, 45° C. for 24 h
Experimental: Four samples (B, G, H and O) were transferred to a vacuum oven and dried at 45° C. for 24 h.

[5] = Solubility of apomorphine free base and HCl salt in solvents; assay type: physicochemical
Experimental: This material was used in 50 mg portions (A0513-06).
The free base is fully soluble in 5 vol of either MeOH, EtOH, or n-BuOH. […] The free base precipitated as an oil from most solvents, particularly after heating. An apparently crystalline solid formed following dissolution of the free base and cooling in 1,4-dioxane.

[6] = Stability study of the isolated solid to air and light (HPLC profile); assay type: physicochemical
Experimental: The 3-amino-1-propanol mediated salt release of apomorphine was scaled to 10 g in IPA (10 vol), and in order to aid the mobility of the reaction, the addition of the 3-amino-1-propanol was performed at 40-45° C. […] The slurry was cooled and aged over 16 h at 18 to 23° C.
Samples of solids isolated from an IPA recrystallization of the free base, salt released via the 3-amino-1-propanol route were monitored by their color change and their HPLC profile. The HPLC profiles are described in Table 8.

[7] = Antioxidant additives: stability of apomorphine free base in MeOH solution (HPLC); assay type: physicochemical; settings: MeOH (10 vol)
Experimental: However, the free base in solution is susceptible to aerial oxidation.
The vial was flushed with air, sealed, and stirred. The reactions were compared with a control reaction having no antioxidant. • A—in MeOH (10 vol) (control reaction) • B—ascorbic acid-6-palmitate (10 wt %) in MeOH (10 vol) • C—BHT (10 wt %) in MeOH (10 vol)
Samples were analyzed by HPLC. […] The HPLC profile just after addition of the antioxidant was of similar purity for each sample. After 24 h, sample B had precipitated a small amount of solid in a pale green solution. […] Key impurities elute early in the HPLC profile at RRT 0.15 and 0.18. In the samples without ascorbic acid-6-palmitate these impurities were >1.5% area.

[8] = Stability to air (color visually monitored); assay type: physicochemical; settings: visual
Description: Samples of free base isolated from water, IPA, and MeOAc were retained open to air and the color visually monitored (FIG. 2). Over the course of 2 days, the products isolated from organic solvents discolored to green solids. […]

[9] = no ascorbic acid-6-palmitate, liquors
[10] = ascorbic acid-6-palmitate, 24 h
[11] = ascorbic acid-6-palmitate, 48 h
[12] = ascorbic acid-6-palmitate, 120 h
[13] = with ascorbic acid-6-palmitate, liquors
[14] = with ascorbic acid-6-palmitate, isolated solid
[15] = no ascorbic acid-6-palmitate, isolated solid
[16] = no ascorbic acid-6-palmitate, solution at reflux
[17] = isolated stability to air and light (2 days)
[18] = isolated stability to air and light (5 days)
[19] = isolated stability to air and light (17 days)
[20] = from reaction containing asc, stability of solid in air and light (5 days)
[21] = from reaction containing asc, stability of solid in air and light (14 days)
[22] = isolated from reaction containing asc (1 day)

CN1CCc2cccc3c2C1Cc1ccc(O)c(O)c1-3 (stereo not drawn) [A0513-94-02]
% area: RRT 1.00 [1, 9]: 92.99 % area
% area: RRT 1.09 [1, 9]: 1.79 % area
% area: RRT 1.25 [1, 9]: 0.57 % area
% area: RRT 1.29 [1, 9]: 1.20 % area
% area: RRT 1.50 [1, 9]: 0.22 % area
% area: RRT 1.71 [1, 9]: 0.34 % area
% area: RRT 1.76 [1, 9]: 0.43 % area

CN1CCc2cccc3c2C1Cc1ccc(O)c(O)c1-3 (stereo not drawn) [A0513-68A-03]
% area: RRT 1.00 [2, 10]: 99.93 % area
% area: RRT 1.71 [2, 10]: 0.05 % area
% area: RRT 1.76 [2, 10]: 0.03 % area
% area: RRT 1.00 [2, 11]: 99.96 % area
% area: RRT 1.71 [2, 11]: 0.04 % area
% area: RRT 1.00 [2, 12]: 99.86 % area
% area: RRT 1.25 [2, 12]: 0.04 % area
% area: RRT 1.71 [2, 12]: 0.06 % area
% area: RRT 1.76 [2, 12]: 0.04 % area

CN1CCc2cccc3c2C1Cc1ccc(O)c(O)c1-3 (stereo not drawn) [A0513-98-02]
% area: RRT 1.00 [1, 13]: 95.62 % area
% area: RRT 1.09 [1, 13]: 1.25 % area
% area: RRT 1.25 [1, 13]: 0.19 % area
% area: RRT 1.29 [1, 13]: 0.61 % area
% area: RRT 1.50 [1, 13]: 0.12 % area
% area: RRT 1.71 [1, 13]: 0.45 % area
% area: RRT 1.76 [1, 13]: 0.34 % area

C[N+](C)(C)CC(=O)O [Betaine]
Literature pKa [3]: 12.16

CN1CCc2cccc3c2C1Cc1ccc(O)c(O)c1-3 (stereo not drawn) [A0513-76-01]
% area: RRT 1.00 ([2]; effective purging, 24 h): 99.90 % area
% area: RRT 1.71 ([2]; effective purging, 24 h): 0.06 % area
% area: RRT 1.76 ([2]; effective purging, 24 h): 0.04 % area
% area: RRT 1.00 ([2]; effective purging, 96 h): 99.90 % area
% area: RRT 1.71 ([2]; effective purging, 96 h): 0.06 % area
% area: RRT 1.76 ([2]; effective purging, 96 h): 0.04 % area

CN1CCc2cccc3c2[C@H]1Cc1ccc(O)c(O)c1-3 [O]
Solvent content post-drying [4]: 7.8 % w/w

CC(C)O.CN1CCc2cccc3c2C1Cc1ccc(O)c(O)c1-3 (stereo not drawn) [A0513-98-03]
% area: RRT 1.00 [1, 14]: 99.93 % area
% area: RRT 1.25 [1, 14]: 0.07 % area

CN1CCc2cccc3c2C1Cc1ccc(O)c(O)c1-3 (stereo not drawn) [A0513-72-01]
% area: RRT 0.74 ([2]; poor purging, 24 h): 0.22 % area
% area: RRT 1.00 ([2]; poor purging, 24 h): 98.18 % area
% area: RRT 1.09 ([2]; poor purging, 24 h): 0.13 % area
% area: RRT 1.22 ([2]; poor purging, 24 h): 0.44 % area
% area: RRT 1.25 ([2]; poor purging, 24 h): 0.10 % area
% area: RRT 1.37 ([2]; poor purging, 24 h): 0.15 % area
% area: RRT 1.50 ([2]; poor purging, 24 h): 0.07 % area
% area: RRT 0.74 ([2]; poor purging, 48 h): 0.10 % area
% area: RRT 1.00 ([2]; poor purging, 48 h): 94.66 % area
% area: RRT 1.09 ([2]; poor purging, 48 h): 2.32 % area
% area: RRT 1.22 ([2]; poor purging, 48 h): 0.42 % area
% area: RRT 1.25 ([2]; poor purging, 48 h): 1.46 % area
% area: RRT 1.37 ([2]; poor purging, 48 h): 0.16 % area
% area: RRT 1.50 ([2]; poor purging, 48 h): 0.10 % area

CN1CCc2cccc3c2[C@H]1Cc1ccc(O)c(O)c1-3 [apomorphine hydrochloride]
Solubility in methanol ([5]; listed as HCl salt, hydrochloride): the only solvent that dissolved any significant amount; also recorded: moderate solubility
Solubility in n-BuOH ([5]; up to 20 vol at reflux): did not dissolve

CC1(C)CCCC(C)(C)N1 [TMP, 2,2,6,6-tetramethylpiperidine]
pKa [3]: 11.07
Literature pKa [3]: 11.07

CC(C)O.CN1CCc2cccc3c2C1Cc1ccc(O)c(O)c1-3 (stereo not drawn) [A0513-94-03]
% area: RRT 1.00 [1, 15]: 99.81 % area
% area: RRT 1.25 [1, 15]: 0.13 % area
% area: RRT 1.71 [1, 15]: 0.02 % area

CN1CCc2cccc3c2C1Cc1ccc(O)c(O)c1-3 (stereo not drawn) [A0513-94-01]
% area: RRT 1.00 [1, 16]: 99.56 % area
% area: RRT 1.09 [1, 16]: 0.05 % area
% area: RRT 1.25 [1, 16]: 0.06 % area
% area: RRT 1.71 [1, 16]: 0.06 % area
% area: RRT 1.76 [1, 16]: 0.04 % area

CN(C1CCCCC1)C1CCCCC1 [N-methyl-dicyclohexyl amine]
pKa [3]: 9.25

NCCCO [3-amino-1-propanol]
pKa [3]: 10.23

CC(C)O.CN1CCc2cccc3c2[C@H]1Cc1ccc(O)c(O)c1-3 [A0513-64-05, apomorphine free base mono-IPA solvate]
% area: RRT 1.00 ([6]; isolated solid, no ascorbic acid-6-palmitate, output): 100.00 % area
% area: RRT 1.00 [6, 17]: 99.98 % area
% area: RRT 1.71 [6, 17]: 0.02 % area
% area: RRT 1.00 [6, 18]: 99.95 % area
% area: RRT 1.71 [6, 18]: 0.03 % area
% area: RRT 1.76 [6, 18]: 0.02 % area
% area: RRT 0.41 [6, 19]: 0.03 % area
% area: RRT 1.00 [6, 19]: 99.92 % area
% area: RRT 1.71 [6, 19]: 0.02 % area
% area: RRT 1.76 [6, 19]: 0.03 % area

CC(C)O.CN1CCc2cccc3c2[C@H]1Cc1ccc(O)c(O)c1-3 [A0513-68-01, apomorphine free base mono-IPA solvate]
% area: RRT 1.00 [6, 20]: 99.97 % area
% area: RRT 1.71 [6, 20]: 0.03 % area
% area: RRT 0.41 [6, 21]: 0.01 % area
% area: RRT 1.00 [6, 21]: 99.92 % area
% area: RRT 1.71 [6, 21]: 0.03 % area
% area: RRT 1.76 [6, 21]: 0.02 % area
% area: RRT 2.02 [6, 21]: 0.02 % area
% area: RRT 1.00 [6, 22]: 99.98 % area
% area: RRT 1.71 [6, 22]: 0.02 % area

CN1CCc2cccc3c2[C@H]1Cc1ccc(O)c(O)c1-3 [Sample B]
Solvent content post-drying [4]: 23.4 % w/w
HPLC purity compared between samples ([7]; after 24 h): higher than for either A or C
HPLC purity compared between samples ([7]; after 72 h): highest purity

CN1CCc2cccc3c2[C@H]1Cc1ccc(O)c(O)c1-3 [Sample G]
IPA content remaining ([4]; 75° C. for 17 h under vacuum): 17.4 % w/w

CN1CCc2cccc3c2[C@H]1Cc1ccc(O)c(O)c1-3 [H]
Solvent content post-drying [4]: 20.0 % w/w

CN1CCc2cccc3c2[C@H]1Cc1ccc(O)c(O)c1-3 [apomorphine]
Solubility in EtOH ([5]; 5 vol, 50 mg portions): fully soluble
Solubility in MeOH ([5]; 5 vol, 50 mg portions): fully soluble
Solubility in n-BuOH ([5]; 5 vol, 50 mg portions): fully soluble
Color of solid retained open to air ([8]; over 2 days): did not appear to change
Time over which the solid gradually discolored open to air [8]: about 4 weeks
